This note sets out measurements from patent US20230295201A1 (Gilead Sciences, Inc., priority 2020, published 2023).

Common to all, as to assay type: cell-based
The test system of one assay is DENV2 replicon. Kind of assay: DENV-2 Huh-7 Rep EC50 (replicon luminescence). The note with it: read-out: DENV-2 Huh-7 Rep EC50. In short, it runs like this:
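Huh-7 cells carrying a DENV2 replicon, 5,000 cells/well, were incubated with dosed compounds for 48 h at 37° C. EnduRen live-cell substrate was added 1.5 h before luminescence reading. EC50 came from dose-response against DMSO-only wells.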

Another assay deals with HRV16. Kind of assay: HRV16 HELA EC50 (cytopathic effect in H1-HeLa cells). An outline of the steps: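 H1-HeLa cells seeded one day before, given 3-fold serial compound dilutions in triplicate just prior to infection with pre-titrated virus. Incubated 96 h at 33 °C/5% CO2; protection from cytopathic effect read as viability by CellTiter-Glo luminescence, normalised to infected untreated (0%) and uninfected (100%) controls.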
For orientation: Cytopathic effects are the visible damage that an infection or toxin causes in cultured cells.

Another assay relates to RSV A2. Description: RSV NHBE EC50 (RSV A2 antiviral assay in normal human bronchial epithelial cells). The conditions noted are these: NHBE cells, RSV A2, 4 days, read-out: RSV NHBE EC50.
For another assay, the system named is RSV strain A2. Description: RSV HEp-2 EC50 (infectious cytopathic cell protection assay). The note with it: HEp-2 cells, RSV A2, 4 days, read-out: RSV HEp-2 EC50. An outline of the steps: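 HEp-2 cells mixed with titered RSV A2 at 50,000 cells/ml were added to plates holding 3-fold serial compound dilutions in DMSO, then incubated 4 days at 37° C. Cytoprotection was read as cell viability by CellTiter-Glo luminescence and converted to percent inhibition against 0% and 100% inhibition controls.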

Setting [1] is: Dengue virus, DENV2, Huh-7, 48 h.
Where [2] appears, read: H1-HeLa cells, 96 h, 33° C.; read-out: HRV16 HELA EC50.
Where [3] appears, read: human respiratory syncytial virus, 96 h.
[4] abbreviates: Dengue virus, DENV2, Huh-7, 48 h, Huh-7 replicon cells, 48 hours.
Where [5] appears, read: 96 h, H1-HeLa cells, 33° C., read-out: HRV16 HELA EC50.
Setting [6] is: human respiratory syncytial virus, NHBE, 96 h.
Where [7] appears, read: human respiratory syncytial virus, HEp-2, 96 h.

Read-outs that look alike come from different tables or passages of the source.

`COCCOP(=O)(N[C@@H](C)C(=O)OC(C)C)OC[C@@]1(C#N)O[C@@H](c2ccc3c(N)ncnn23)[C@H](O)[C@@H]1O` (stereo partly drawn) [Example 41, isopropyl ((((2R,3S,4R,5S)-5-(4-aminopyrrolo[2,1-f][1,2,4]triazin-7-yl)-2-cyano-3,4-dihydroxytetrahydrofuran-2-yl)methoxy)(2-methoxyethoxy)phosphoryl)-L-alaninate]: the EC50 was more than 50 µM with DENV2 replicon (setting [1]), more than 50 µM with HRV16 (setting [2]), not below 5 µM in the assay with RSV A2 (setting [3]) and more than 50 µM in the assay on RSV strain A2 (setting [3]).
With `CC(C)OC(=O)[C@H](C)NP(=O)(OCCS(C)(=O)=O)OC[C@@]1(C#N)O[C@@H](c2ccc3c(N)ncnn23)[C@H](O)[C@@H]1O` (stereo partly drawn) [Example 42, isopropyl ((((2R,3S,4R,5S)-5-(4-aminopyrrolo[2,1-f][1,2,4]triazin-7-yl)-2-cyano-3,4-dihydroxytetrahydrofuran-2-yl)methoxy)(2-(methylsulfonyl)ethoxy)phosphoryl)-L-alaninate], the EC50 was 39.2 µM with DENV2 replicon (setting [1]), more than 50 µM with HRV16 (setting [2]), not below 5 µM in the assay with RSV A2 (setting [3]) and 25.4 µM in the assay with RSV strain A2 (setting [3]).
Turning to `CCCOC(=O)[C@H](C)N[P@](=O)(OC[C@@]1(C#N)O[C@@H](c2ccc3c(N)ncnn23)[C@H](O)[C@@H]1O)Oc1ccccc1` [Example 45, propyl ((S)-(((2R,3S,4R,5S)-5-(4-aminopyrrolo[2,1-f][1,2,4]triazin-7-yl)-2-cyano-3,4-dihydroxytetrahydrofuran-2-yl)methoxy)(phenoxy)phosphoryl)-L-alaninate], the EC50 with DENV2 replicon (setting [4]) is 9.66 µM; with HRV16 (setting [5]), 0.375 µM; with RSV A2 (setting [6]), 0.248 µM; in the assay on RSV strain A2 (setting [7]) it was 0.055 µM.
In the same order, the values of `C[C@H](NP(=O)(OC[C@@]1(C#N)O[C@@H](c2ccc3c(N)ncnn23)[C@H](O)[C@@H]1O)Oc1ccccc1)C(=O)OCC1COC1` (stereo partly drawn) [Example 49, oxetan-3-ylmethyl ((((2R,3S,4R,5S)-5-(4-aminopyrrolo[2,1-f][1,2,4]triazin-7-yl)-2-cyano-3,4-dihydroxytetrahydrofuran-2-yl)methoxy)(phenoxy)phosphoryl)-L-alaninate] are more than 50 µM, 8.72 µM, 2.43 µM and 1.08 µM.
Turning to `C[C@H](NP(=O)(OC[C@@]1(C#N)O[C@@H](c2ccc3c(N)ncnn23)[C@H](O)[C@@H]1O)Oc1ccccc1)C(=O)OC1CCC1` (stereo partly shown) [Example 51], the EC50 is 9.21 µM in the assay with DENV2 replicon (Huh-7 replicon cells, 48 hours); 0.357 µM in the assay with HRV16 (setting [2]); more than 1.24 µM in the assay with RSV A2; 0.09 µM in the assay with RSV strain A2.
As for `COCCOc1ccc(OP(=O)(N[C@@H](C)C(=O)OC(C)C)OC[C@@]2(C#N)O[C@@H](c3ccc4c(N)ncnn34)[C@H](O)[C@@H]2O)cc1` (stereo partly shown) [Example 53], the EC50 with DENV2 replicon (setting [4]) is more than 50 µM; in the assay with HRV16 (setting [5]), 15.5 µM; in the assay with RSV A2 (human respiratory syncytial virus, NHBE, in Homo sapiens, 96 h), not below 5 µM; in the assay with RSV strain A2 (setting [7]), 2.36 µM.
In the case of `C[C@H](NP(=O)(OC[C@@]1(C#N)O[C@@H](c2ccc3c(N)ncnn23)[C@H](O)[C@@H]1O)Oc1ccccc1)C(=O)OC1CCOCC1` (stereo partly drawn) [Example 55, tetrahydro-2H-pyran-4-yl ((((2R,3S,4R,5S)-5-(4-aminopyrrolo[2,1-f][1,2,4]triazin-7-yl)-2-cyano-3,4-dihydroxytetrahydrofuran-2-yl)methoxy)(phenoxy)phosphoryl)-L-alaninate], the EC50 was more than 50 µM in the assay on DENV2 replicon (setting [4]), 6.91 µM in the assay on HRV16 (setting [5]), 4.29 µM in the assay with RSV A2 (setting [6]) and 0.57 µM in the assay on RSV strain A2 (setting [7]).
In the same order, the values of `CCC(CC)COC(=O)[C@H](CCCCNC(=O)OCc1ccccc1)NP(=O)(OC[C@@]1(C#N)O[C@@H](c2ccc3c(N)ncnn23)[C@H](O)[C@@H]1O)Oc1ccccc1` (stereo partly drawn) [Example 79, 2-ethylbutyl N2-((((2R,3S,4R,5S)-5-(4-aminopyrrolo[2,1-f][1,2,4]triazin-7-yl)-2-cyano-3,4-dihydroxytetrahydrofuran-2-yl)methoxy)(phenoxy)phosphoryl)-N6-((benzyloxy)carbonyl)-L-lysinate] are 40.2 µM, more than 34.8 µM, more than 5 µM and more than 50 µM.
In the same order, the values of `CC(C)OC(=O)[C@H](Cc1ccccc1)NP(=O)(OC[C@@]1(C#N)O[C@@H](c2ccc3c(N)ncnn23)[C@H](O)[C@@H]1O)Oc1ccccc1` (stereo partly drawn) [Example 80, (2S)-isopropyl 2-(((((2R,3S,4R,5S)-5-(4-aminopyrrolo[2,1-f][1,2,4]triazin-7-yl)-2-cyano-3,4-dihydroxytetrahydrofuran-2-yl)methoxy)(phenoxy)phosphoryl)amino)-3-phenylpropanoate] are more than 50 µM, 8.96 µM, 4.7 µM and 3.83 µM.
As for `CCC(CC)COC(=O)[C@H](Cc1ccccc1)NP(=O)(OC[C@@]1(C#N)O[C@@H](c2ccc3c(N)ncnn23)[C@H](O)[C@@H]1O)Oc1ccccc1` (stereo partly drawn) [Example 81, (2S)-2-ethylbutyl 2-(((((2R,3S,4R,5S)-5-(4-aminopyrrolo[2,1-f][1,2,4]triazin-7-yl)-2-cyano-3,4-dihydroxytetrahydrofuran-2-yl)methoxy)(phenoxy)phosphoryl)amino)-3-phenylpropanoate], the EC50 in the assay with DENV2 replicon (setting [4]) was 38.9 µM; in the assay on HRV16 (setting [5]), 3.37 µM; with RSV A2 (setting [6]), 2.65 µM; in the assay on RSV strain A2 (setting [7]) it was 3.57 µM.
As for `CC(C)OC(=O)[C@@H](C)NP(=O)(OC[C@@]1(C#N)O[C@@H](c2ccc3c(N)ncnn23)[C@H](O)[C@@H]1O)Oc1ccccc1` (stereo partly drawn) [Example 86, (2R)-isopropyl 2-(((((2R,3S,4R,5S)-5-(4-aminopyrrolo[2,1-f][1,2,4]triazin-7-yl)-2-cyano-3,4-dihydroxytetrahydrofuran-2-yl)methoxy)(phenoxy)phosphoryl)amino)propanoate], the EC50 with DENV2 replicon (setting [4]) is more than 50 µM; in the assay with HRV16 (setting [5]) it was more than 50 µM; in the assay with RSV A2 (setting [6]), more than 5 µM; in the assay with RSV strain A2 (setting [7]), 22.6 µM.
Regarding `CC[C@H](NP(=O)(OC[C@@]1(C#N)O[C@@H](c2ccc3c(N)ncnn23)[C@H](O)[C@@H]1O)Oc1ccccc1)C(=O)OC(C)C` (stereo partly drawn) [Example 87, (2S)-isopropyl 2-(((((2R,3S,4R,5S)-5-(4-aminopyrrolo[2,1-f][1,2,4]triazin-7-yl)-2-cyano-3,4-dihydroxytetrahydrofuran-2-yl)methoxy)(phenoxy)phosphoryl)amino)butanoate], the EC50 with DENV2 replicon (setting [4]) is more than 100 µM; in the assay with HRV16 (setting [5]), 6.71 µM; with RSV A2 (setting [6]) it was 1.7 µM; in the assay on RSV strain A2 (setting [7]), 1.34 µM.
In the same order, the values of `CCOC(=O)[C@H](CC)NP(=O)(OC[C@@]1(C#N)O[C@@H](c2ccc3c(N)ncnn23)[C@H](O)[C@@H]1O)Oc1ccccc1` (stereo partly drawn) [Example 97, (2S)-ethyl 2-(((((2R,3S,4R,5S)-5-(4-aminopyrrolo[2,1-f][1,2,4]triazin-7-yl)-2-cyano-3,4-dihydroxytetrahydrofuran-2-yl)methoxy)(phenoxy)phosphoryl)amino)butanoate] are more than 100 µM, 4.42 µM, 1.37 µM and 0.537 µM.
For `CC(C)[C@H](NP(=O)(OC[C@@]1(C#N)O[C@@H](c2ccc3c(N)ncnn23)[C@H](O)[C@@H]1O)Oc1ccccc1)C(=O)OC1CCCCC1` (stereo partly drawn) [Example 98, cyclohexyl ((((2R,3S,4R,5S)-5-(4-aminopyrrolo[2,1-f][1,2,4]triazin-7-yl)-2-cyano-3,4-dihydroxytetrahydrofuran-2-yl)methoxy)(phenoxy)phosphoryl)-L-valinate], the EC50 in the assay on DENV2 replicon (setting [4]) is more than 50 µM; in the assay on HRV16 (setting [5]), more than 50 µM; in the assay with RSV A2 (setting [6]), more than 5 µM; in the assay with RSV strain A2 (setting [7]), more than 50 µM.
For `CC(C)OC(=O)C[C@H](C)NP(=O)(OC[C@@]1(C#N)O[C@@H](c2ccc3c(N)ncnn23)[C@H](O)[C@@H]1O)Oc1ccccc1` (stereo partly drawn) [Example 99, (3S)-isopropyl 3-(((((2R,3S,4R,5S)-5-(4-aminopyrrolo[2,1-f][1,2,4]triazin-7-yl)-2-cyano-3,4-dihydroxytetrahydrofuran-2-yl)methoxy)(phenoxy)phosphoryl)amino)butanoate], the EC50 was more than 50 µM in the assay with DENV2 replicon (setting [4]), more than 50 µM in the assay with HRV16 (setting [5]), more than 5 µM in the assay on RSV A2 (setting [6]) and more than 50 µM in the assay on RSV strain A2 (setting [7]).
For the molecule `CCC(CC)COC(=O)C1(NP(=O)(OC[C@@]2(C#N)O[C@@H](c3ccc4c(N)ncnn34)[C@H](O)[C@@H]2O)Oc2ccccc2)CCC1` (stereo partly drawn) [Example 100, 2-ethylbutyl 1-(((((2R,3S,4R,5S)-5-(4-aminopyrrolo[2,1-f][1,2,4]triazin-7-yl)-2-cyano-3,4-dihydroxytetrahydrofuran-2-yl)methoxy)(phenoxy)phosphoryl)amino)cyclobutanecarboxylate], the EC50 in the assay on DENV2 replicon (setting [4]) was more than 50 µM; with HRV16 (setting [5]), 18 µM; with RSV A2 (setting [6]), 3.6 µM; with RSV strain A2 (setting [7]), more than 5.6 µM.

As usually defined, the EC50 is the concentration giving half of the maximal effect.
